Values quoted from earlier work, collected in patent publication US20040197891A1, “Removal of plasmin(ogen) from protein solutions” (priority 2001, published 2004).
Read-outs that look alike come from different tables or passages of the source.

Legend:
[1] = test system: fibrinolytic activity of plasma
[2] = plasma that has been heparinized oral blood

SMILES	antifibrinolytic activity compared with EACA (plasmin(ogen))	inhibition (anti-fibrinolytic activity) [1, 2] [%]	inhibition (anti-fibrinolytic activity) ([1]; urokinase-stimulated plasma) [%]	antifibrinolytic potency (plasmin(ogen))
N=C(N)c1ccc(N)cc1 [PAMBA, p-amino benzamidine]	about three	–	–	–
NC[C@H]1CC[C@H](C(=O)O)CC1 [tranexamic acid]	–	39	91	–
NCCCCCC(=O)O [ε-amino-caproic acid, ε-amino caproic acid]	–	65	98	–
NCCCC[C@H](N)C(=O)O [lysine]	–	–	–	very low
